From PubChem BioAssay (NCI) come the findings set out here.

Structures are written as SMILES.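 Exposure lasted 48 hours, with cells grown in 96-well plates and compounds tested at five concentrations. Here, GI50 denotes the concentration required for 50% inhibition of growth. TGI: total growth inhibition.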

Holding throughout (experiment): NCI-60 cell line screen, 48 h
In assay [1] the test system is OVCAR-5 ovarian.
Assay [2] deals with HOP-62 NSCLC.
The subject of assay [3] is SR leukemia.
The subject of assay [4] is SNB-19 CNS.
Assay [5] deals with MALME-3M melanoma.
Assay [6] has as its system HCT-116 colon.
Assay [7] concerns SF-268 CNS.
In assay [8] the test system is U251 CNS.
For assay [9], the system named is A498 renal.
In assay [10] the test system is NCI-H226 lung.

On to `CC1=C(C)CC2(SC1)C(=O)c1ccccc1C2=O`, for which the TGI in [1], in assay [2], in assay [3], in assay [4], in [5] and in [6] was over 100 µM each time. In addition, the TGI in [7], in assay [8], in assay [9] and in [10] was over 100 µM in each case.

Regarding `NC(=O)C(Br)CBr` (stereo not given), the GI50 in [1] is 5.73 µM; in assay [2], 18.4 µM; in [3], 0.394 µM; in [4] it was 15.5 µM; in [5], 1.91 µM; in [6], 1.3 µM. Further, the GI50 in assay [7] is 2.65 µM; in [8], 3.73 µM; in assay [9], 15.3 µM; in assay [10], 7.68 µM. For the same compound, the TGI turned out to be 13.7 µM in assay [1]; 43.5 µM in assay [2]; 2.56 µM in assay [3]; 29.6 µM in assay [4]; 4.53 µM in [5]; 2.56 µM in [6]. Also, the TGI in [7] stood at 8.29 µM; in assay [8] it was 14.7 µM; in [9], 29 µM; in assay [10], 27.1 µM.

On to `NS(=O)(=O)c1ccc(C2C3=C(CCCC3=O)OC3=C2C(=O)c2ccccc2C3=O)cc1` (stereo not given), for which the GI50 in [1] is 1.7 µM; in assay [2] it was 1.49 µM; in [3] it was 0.47 µM; in assay [4], 1.24 µM; in assay [5], 0.319 µM; in [6], 0.253 µM. Further, the GI50 in assay [7] is 0.386 µM; in assay [8], 0.318 µM; in assay [9], 1.28 µM; in assay [10] it was 1.75 µM. For the same compound, the TGI was 3.51 µM in assay [1]; 2.91 µM in assay [2]; 3.88 µM in assay [3]; 2.52 µM in assay [4]; 1.09 µM in [5]; 0.725 µM in [6]. The TGI in assay [7] came out at 1.66 µM; in assay [8], 1.05 µM; in assay [9], 2.57 µM; in [10], 3.36 µM.

Take `CN(C)/C=C/c1nnnn1-c1ccc(Cl)cc1`: the GI50 in [1] is 24.7 µM; in assay [2], 11.4 µM; in assay [3] it was 3.35 µM; in [4], 29 µM; in assay [5], 12.8 µM; in assay [6], 4.4 µM. Also, the GI50 in [7] is 3.01 µM; in [8] it was 6.5 µM; in assay [9], 30.5 µM; in assay [10], 15.6 µM. The TGI is 55.4 µM in assay [1]; 46.9 µM in assay [2]; 29.6 µM in assay [3]; 92.9 µM in assay [4]; 38.7 µM in assay [5]; 37.3 µM in assay [6]. The TGI in assay [7] was 19.8 µM; in assay [8] it was over 100 µM; in assay [9], 87.1 µM; in assay [10], 44.3 µM.

Take `C=C1C(=O)O[C@H]2[C@H]1CC/C(CNS(=O)(=O)c1ccc3ccccc3c1)=C\CC[C@@]1(C)O[C@@H]21`: the GI50 was 1.99 µM in [1]; 12.5 µM in [2]; 1.23 µM in assay [3]; 12 µM in [4]; 1.94 µM in [5]; 0.879 µM in [6]. The GI50 was 2.72 µM in assay [7], 8.29 µM in assay [8], 10.2 µM in assay [9] and 13.9 µM in assay [10]. For the same compound, the TGI turned out to be 4.82 µM in assay [1]; 29.6 µM in assay [2]; 7.12 µM in [3]; 26.7 µM in assay [4]; 4.59 µM in assay [5]; 2.12 µM in [6]. Moreover, the TGI in [7] was determined as 10.1 µM; in assay [8], 21.1 µM; in assay [9], 21.8 µM; in [10], 34.8 µM.

With `COc1ccc(Nc2ccnc(NCCNc3ccnc4cc(Cl)ccc34)n2)cc1`, the GI50 in assay [1] is 1.29 µM; in [2], 3.56 µM; in assay [3], 2.12 µM; in [4] it was 2.86 µM; in [5], 1.93 µM; in [6], 0.533 µM. The GI50 is 3.65 µM in [7], 1.69 µM in assay [8], 0.874 µM in assay [9] and 7.29 µM in [10]. For the same compound, the TGI was 7.13 µM in assay [1]; 18.4 µM in assay [2]; 7.51 µM in assay [3]; 12 µM in [4]; 3.87 µM in assay [5]; 3.78 µM in assay [6]. The TGI in [7] turned out to be 15.6 µM; in assay [8], 5.22 µM; in assay [9] it was 4.92 µM; in assay [10], 21.1 µM.

Take `N#Cc1cccc(C(=O)c2cnn(-c3ccc(F)cc3)c2N)c1`: the GI50 is over 25 µM in assay [1]; over 17.2 µM in assay [2]; over 25 µM in assay [3]; over 25 µM in assay [4]; over 25 µM in [5]; over 25 µM in [6]. Also, the GI50 in [7] is over 25 µM; in assay [8], 18.1 µM; in assay [9] it was over 25 µM; in [10], over 25 µM. Besides, the TGI in assay [1], in assay [2], in assay [3], in assay [4], in assay [5] and in assay [6] was over 25 µM throughout. In addition, the TGI in [7], in [8], in assay [9] and in assay [10] was over 25 µM each time.

With `CC(C)COC(=O)N1N=NC2C3OC(CC3=O)C21` (stereo not given), the TGI in assay [1], in assay [2], in assay [3], in [4], in assay [5] and in assay [6] was over 100 µM throughout. In addition, the TGI in [7], in assay [8], in assay [9] and in [10] was over 100 µM each time.

As to `C=C1C(=O)O[C@H]2[C@H]1CC/C(CNC(=O)/C=C/c1cccc(OC)c1)=C\CC[C@@]1(C)O[C@@H]21`, the GI50 is 2.05 µM in assay [1]; 3.17 µM in [2]; 0.537 µM in assay [3]; 3.22 µM in assay [4]; 1.48 µM in [5]; 0.545 µM in assay [6]. The GI50 is 2.29 µM in [7], 1.58 µM in assay [8], 1.82 µM in [9] and 1.82 µM in assay [10]. For the same compound, the TGI in assay [1] came to 5.36 µM; in [2], 14.8 µM; in assay [3] it was 10.5 µM; in [4], 13.5 µM; in [5], 3.3 µM; in [6], 1.94 µM. Also, the TGI in [7] came to 6.69 µM; in [8], 3.11 µM; in [9], 5.85 µM; in assay [10] it was 4.84 µM.

With `O=CN1N=C(c2ccc(Nc3ccnc4cc(Cl)ccc34)cc2)CC1c1ccccc1` (stereo not given), the GI50 in assay [1] was 19.8 µM; in assay [2] it was 5.26 µM; in assay [3] it was 1.77 µM; in [4] it was 5.13 µM; in assay [5], 4.21 µM; in assay [6], 3.58 µM. The GI50 in assay [7] was 3.96 µM; in assay [8], 3.12 µM; in assay [9], 1.3 µM; in [10], 5.22 µM. Further, the TGI is over 100 µM in assay [1]; 76.5 µM in assay [2]; 4.9 µM in [3]; over 100 µM in assay [4]; over 100 µM in [5]; 18.5 µM in assay [6]. The TGI in assay [7] was over 100 µM; in [8], 19.2 µM; in assay [9] it was 6.79 µM; in assay [10], over 100 µM.

In the case of `O=c1[nH]cnc2c1nnn2C1OC(CO)C(O)C1O` (stereo not given), the GI50 is 26.6 µM in assay [1]; 2.67 µM in [2]; 3.37 µM in assay [3]; 19.6 µM in [4]; 2.64 µM in assay [5]; 3.88 µM in [6]. The GI50 in assay [7] was 6.81 µM; in [8], 20.4 µM; in assay [9], 5 µM; in assay [10], 4.88 µM. Moreover, the TGI in assay [1] was over 100 µM; in assay [2] it was over 100 µM; in [3], over 100 µM; in assay [4], over 100 µM; in [5], over 59 µM; in assay [6], over 100 µM. The TGI in assay [7], in [8], in [9] and in assay [10] was over 100 µM throughout.

On to `Cc1nc2cncc(C#Cc3cncc(C(=O)Nc4ccc(CN5CCN(C)CC5)c(C(F)(F)F)c4)c3)c2nc1C`, for which the GI50 was 0.608 µM in assay [1]; 0.839 µM in assay [2]; 0.46 µM in assay [3]; 5.08 µM in assay [4]; 0.146 µM in assay [5]; 0.248 µM in [6]. Besides, the GI50 in assay [7] was 0.552 µM; in [8], 0.559 µM; in assay [9] it was 0.0756 µM; in assay [10] it was 0.0572 µM. Further, the TGI in [1] turned out to be 17.5 µM; in [2], 5 µM; in assay [3], 3.81 µM; in assay [4], 13.2 µM; in assay [5], 0.623 µM; in assay [6] it was 2.22 µM. Also, the TGI in assay [7] was found to be 18.8 µM; in assay [8], 7.43 µM; in [9], 0.772 µM; in [10], 4.19 µM.

In the case of `O=[N+]([O-])c1cc(O)c(O)cc1-c1cn2ccsc2n1`, the GI50 in [1] was over 100 µM; in assay [2], 36.1 µM; in assay [3] it was 41.3 µM; in assay [4] it was 91.1 µM; in assay [5], over 100 µM; in [6], 31.1 µM. The GI50 was 66.1 µM in assay [7], 77.1 µM in [8], 25.3 µM in [9] and 76.7 µM in assay [10]. For the same compound, the TGI in [1], in [2], in assay [3], in assay [4], in assay [5] and in assay [6] was over 100 µM each time. Also, the TGI was over 100 µM in assay [7], over 100 µM in assay [8], 62.3 µM in assay [9] and over 100 µM in assay [10].

Consider `CCc1ccc(-c2ccc(=O)n(-c3ccc(S(N)(=O)=O)cc3)n2)cc1`, for which the GI50 in assay [1] was over 64.4 µM; in assay [2], 5.62 µM; in [3], 0.0659 µM; in assay [4] it was 5.21 µM; in [5] it was 0.371 µM; in assay [6], 0.951 µM. The GI50 in assay [7] was 9.06 µM; in [8] it was 3.36 µM; in assay [9], 8.86 µM; in assay [10], 21.1 µM. Besides, the TGI in assay [1] is over 100 µM; in assay [2] it was 30.5 µM; in [3], 0.497 µM; in assay [4], 40.1 µM; in assay [5], 23.1 µM; in [6] it was over 43.7 µM. The TGI was over 69.3 µM in [7], 29 µM in assay [8], over 61.4 µM in assay [9] and over 100 µM in assay [10].

With `Nc1c(C(=O)c2cccc(-c3ccc[n+]([O-])c3)c2)cnn1-c1ccc(F)cc1F`, the GI50 is over 25 µM in [1]; over 25 µM in assay [2]; 17.8 µM in assay [3]; over 25 µM in assay [4]; over 25 µM in assay [5]; over 25 µM in assay [6]. Further, the GI50 in [7], in [8], in assay [9] and in assay [10] was over 25 µM each time. Also, the TGI in assay [1], in [2], in [3], in assay [4], in assay [5] and in assay [6] was over 25 µM throughout. The TGI in assay [7], in [8], in assay [9] and in [10] was over 25 µM each time.
